“Also recorded” adds a separate entry of the source.
Columns and labels:
ERK [1] = assay: ERK activation in NS20Y neuroblastoma cells, immunoblotting for dually phosphorylated ERK; type: cell-based, mouse; conditions: for ERK activation: dually phosphorylated ERK by immunoblotting; for Effect of inhibitor pretreatment on A9-stimulated ERK activation: A9 1 μM, 45 minutes
SH-SY5Y cells = assay: Neurite length in NGF-treated SH-SY5Y neuroblastoma cells; type: cell-based, human
Protocol: Analysis of neurite length in SH-SY5Y neuroblastoma cells: SH-SY5Y neuroblastoma cells develop axonal-like processes on treatment with NGF. For analysis of process length, cells (20 fields/well) are randomly photographed at 96 and 168 hours. Neurite lengths are measured on photographic prints using a Houston Instrument HI-PAD digitizing tablet connected to a computer with appropriate software (Bioquant IV); only processes more than twice the cell body length are measured. Data from identically treated wells are combined. […] Histograms are compared using a Mann-Whitney U test (α=0.05), which makes no assumptions about the shape of the distribution.
As disclosed herein, high and sustained ERK activation induces neurite growth in […] neuroblastoma cells and protects neuronal cells from neurotoxins. To test this, SH-SY5Y human neuroblastoma cells were used, which can be induced into neuron-like phenotype by NGF treatment. This is an established method for measuring neurite growth-promoting activity in vitro in Dr. Gold's lab (Gold et al., Neurosignals. 13:122-129, 2004; Gold et al., Exp. Neurol. 147:269-278, 1997). […] Representative micrographs at 168 hours for vehicle (control), NGF (10 ng/ml), and NGF (10 ng/ml) plus A9 (100 nM) are shown in FIG. 5B.

ERK [2] = conditions: NS20Y cells; previous study; cited from earlier work
PKCζ = molecular target: T1, PKCζ (Homo sapiens, UniProt Q05513); conditions: read-out: IC50 for activation of PKCζ; cited from earlier work
T1 sequence (Q05513 1-592): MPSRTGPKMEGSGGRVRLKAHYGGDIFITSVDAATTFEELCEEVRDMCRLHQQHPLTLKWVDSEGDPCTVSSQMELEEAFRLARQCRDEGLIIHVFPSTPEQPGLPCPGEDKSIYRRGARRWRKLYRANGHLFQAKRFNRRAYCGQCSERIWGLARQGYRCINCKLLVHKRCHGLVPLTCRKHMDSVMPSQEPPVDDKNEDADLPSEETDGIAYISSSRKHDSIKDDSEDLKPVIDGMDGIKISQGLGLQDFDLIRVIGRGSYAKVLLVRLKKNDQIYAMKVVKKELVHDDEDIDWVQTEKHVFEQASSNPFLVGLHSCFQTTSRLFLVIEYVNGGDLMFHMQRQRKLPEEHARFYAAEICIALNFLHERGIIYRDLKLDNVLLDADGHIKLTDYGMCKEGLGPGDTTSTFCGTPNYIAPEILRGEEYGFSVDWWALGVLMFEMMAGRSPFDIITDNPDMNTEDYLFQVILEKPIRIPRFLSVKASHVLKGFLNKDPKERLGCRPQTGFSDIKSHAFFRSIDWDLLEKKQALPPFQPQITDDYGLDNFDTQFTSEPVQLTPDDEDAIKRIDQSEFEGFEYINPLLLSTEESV

Compound	ERK activation (ERK [1])	Effect of inhibitor pretreatment on A9-stimulated ERK activation (ERK [1])	also measured
CC(C)(C)c1cc(/C=C(\C#N)C(N)=S)cc(C(C)(C)C)c1O [AG879]	little or no effect		ERK stimulation (ERK [1]; at 0.1 μM): moderate stimulation of ERK; ERK stimulation (ERK [1]; at 1 μM): showed no effect
NGF: nerve growth factor			Development of axonal-like processes (SH-SY5Y cells; SH-SY5Y, NGF 10 ng/ml alone): developed long axonal-like processes
COc1cccc(-c2cc(=O)c3ccccc3o2)c1N [PD98059, reference compound]		prevented A9 from stimulating ERK activation	Effect of MEK inhibitor on A9-induced neurite outgrowth (SH-SY5Y cells; SH-SY5Y cells): did inhibit A9-induced neurite outgrowth
CC(C)(C)n1nc(-c2ccc(Cl)cc2)c2c(N)ncnc21 [PP2]		failed to prevent A9-stimulated ERK activity	Block of ERK activation induced by quinpirole (ERK [2]): block ERK activation induced by quinpirole
CN[C@@H]1C[C@H]2O[C@@](C)([C@@H]1OC)n1c3ccccc3c3c4c(c5c6ccccc6n2c5c31)C(=O)NC4 [stauosporine]		prevented A9 from stimulating ERK activation	
N#CC(=Cc1ccc2[nH]ccc2c1)C(N)=C(C#N)C#N [AG370]	moderate stimulation of ERK; also recorded: little or no effect		
Cc1cc2ncc(-c3ccccc3)nc2cc1C [AG1295]	did not stimulate ERK; also recorded: little or no effect		
N#CC(C#N)=Cc1cc(O)c(O)c(O)c1 [AG82]	did not stimulate ERK	did not prevent the effect of A9	
CN(C)CCCn1cc(C2=C(c3c[nH]c4ccccc34)C(=O)NC2=O)c2ccccc21 [BisI, bisindolylmaleimide I]		failed to prevent A9-stimulated ERK activity	IC50 (PKCζ): 5.8 µM

Reference: patent US20090012179A1, “Use of Tyrphostins to Stimulate Neurite Outgrowth” (priority 2004, published 2009)
